Test results from paper PMC6100356, “The Design and Synthesis of N-Xanthone Benzenesulfonamides as Novel Phosphoglycerate Mutase 1 (PGAM1) Inhibitors” (Molecules : A Journal of Synthetic Chemistry and Natural …, 2018).

What was measured:
H1299 cell line = assay: In vitro antiproliferation of H1299 cells (MTT method); format: cell-based; settings: Homo sapiens, NCI-H1299, 72 h, means ± SD from three determinations
Procedure: Then, some representative compounds were picked out to evaluate their antiproliferative activity (H1299 cell line) by the MTT method (Table 4).
2 × 10^3 cells were seeded in a 96-well plate before starting the assay and they were cultured at 37 °C. After seeding for 24 h, cells were treated with inhibitors with a specific concentration and incubated at 37 °C for 72 h, followed by incubation with 0.5 mg mL^−1 MTT for 4 h at 37 °C. Then, 200 µL of DMSO was added and the absorbance was measured at 570 nm.

enolase, PK, LDH = assay: Counter-screen assay (coupled enzymes without PGAM1, 2PG as substrate); format: biochemical
Procedure: The counter-screen assay was then performed to exclude the off-target inhibition against other enzymes in the in vitro assay (Table 3).

H1299 cell = settings: Figure 1; ref 14 (PGMI-004A), ref 20 (EGCG); cited from earlier work
PGAM1 = settings: Figure 1; ref 14 (PGMI-004A), ref 20 (EGCG); cited from earlier work

| SMILES | IC50 (H1299 cell line) [µM] | Counter-Screen Assay (5 μM), inhibition ratio against the other three enzymes (enolase, PK, LDH) [%] | IC50 (H1299 cell) [µM] | IC50 (PGAM1) [µM] |
| --- | --- | --- | --- | --- |
| CC(=O)Oc1ccc2oc3cc(NS(=O)(=O)c4ccc(-c5ccccc5)cc4)cc(O)c3c(=O)c2c1 [Compound 15j, 6-([1,1′-Biphenyl]-4-sulfonamido)-8-hydroxy-9-oxo-9H-xanthen-2-yl acetate] | 31.1 ± 4.5 | 7 | – | – |
| CC(C)(C)c1ccc(S(=O)(=O)Nc2cc(O)c3c(=O)c4c(O)cccc4oc3c2)cc1 [Compound 9k, 4-(tert-Butyl)-N-(1,8-dihydroxy-9-oxo-9H-xanthen-3-yl)benzenesulfonamide] | 21.1 ± 1.7 | 12 | – | – |
| O=c1c2c(O)cccc2oc2cc(NS(=O)(=O)c3cccc(Cl)c3F)cc(O)c12 [Compound 9h, 3-Chloro-N-(1,8-dihydroxy-9-oxo-9H-xanthen-3-yl)-2-fluorobenzenesulfonamide] | 14.1 ± 1.9 | 12 | – | – |
| O=c1c2c(O)cccc2oc2cc(NS(=O)(=O)c3cccc4ccccc34)cc(O)c12 [Compound 9n, N-(1,8-Dihydroxy-9-oxo-9H-xanthen-3-yl)naphthalene-1-sulfonamide] | – | 13 | – | – |
| Nc1ccn([C@@H]2O[C@H](CO)[C@@H](O)C2(F)F)c(=O)n1 [Gemcitabine, reference compound] | 0.193 | – | – | – |
| O=c1c2cc(Cl)ccc2oc2cc(NS(=O)(=O)c3ccc(-c4ccccc4)cc3)cc(O)c12 [Compound 15f, N-(7-Chloro-1-hydroxy-9-oxo-9H-xanthen-3-yl)-[1,1′-biphenyl]-4-sulfonamide] | 32.7 ± 0.9 | 8 | – | – |
| COc1ccc2oc3cc(NS(=O)(=O)c4ccc(-c5ccccc5)cc4)cc(O)c3c(=O)c2c1 [Compound 15d, N-(1-Hydroxy-7-methoxy-9-oxo-9H-xanthen-3-yl)-[1,1′-biphenyl]-4-sulfonamide] | 19.6 ± 2.2 | 6 | – | – |
| O=c1c2c(O)cccc2oc2cc(NS(=O)(=O)c3ccc(-c4ccccc4)cc3)cc(O)c12 [Compound 9m, N-(1,8-Dihydroxy-9-oxo-9H-xanthen-3-yl)-[1,1′-biphenyl]-4-sulfonamide] | 20.1 ± 1.4 | 9 | – | – |
| O=C(O[C@@H]1Cc2c(O)cc(O)cc2O[C@@H]1c1cc(O)c(O)c(O)c1)c1cc(O)c(O)c(O)c1 [EGCG, epigallocatechin gallate] | – | – | > 80 | 0.49 |
| O=c1c2cc([N+](=O)[O-])ccc2oc2cc(NS(=O)(=O)c3ccc(-c4ccccc4)cc3)cc(O)c12 [Compound 15h, N-(1-Hydroxy-7-nitro-9-oxo-9H-xanthen-3-yl)-[1,1′-biphenyl]-4-sulfonamide] | 33.8 ± 6.1 | 5 | – | – |
| Cc1ccc2oc3cc(NS(=O)(=O)c4ccc(-c5ccccc5)cc4)cc(O)c3c(=O)c2c1 [Compound 15e, N-(1-Hydroxy-7-methyl-9-oxo-9H-xanthen-3-yl)-[1,1′-biphenyl]-4-sulfonamide] | – | 7 | – | – |
| Cc1cccc2c(=O)c3c(O)cc(NS(=O)(=O)c4ccc(-c5ccccc5)cc4)cc3oc12 [Compound 15c, N-(1-Hydroxy-5-methyl-9-oxo-9H-xanthen-3-yl)-[1,1′-biphenyl]-4-sulfonamide] | – | 7 | – | – |
| O=C1c2ccccc2C(=O)c2c1cc(S(=O)(=O)Nc1ccc(C(F)(F)F)cc1)c(O)c2O [PGMI-004A, reference compound] | 26 ± 2.1 | – | 25.6 | – |
| O=c1c2cc(O)ccc2oc2cc(NS(=O)(=O)c3ccc(-c4ccccc4)cc3)cc(O)c12 [Compound 15i, N-(1,7-Dihydroxy-9-oxo-9H-xanthen-3-yl)-[1,1′-biphenyl]-4-sulfonamide] | 30.6 ± 2.4 | 10 | – | – |
| COc1cccc2c(=O)c3c(O)cc(NS(=O)(=O)c4ccc(-c5ccccc5)cc4)cc3oc12 [Compound 15b, N-(1-Hydroxy-5-methoxy-9-oxo-9H-xanthen-3-yl)-[1,1′-biphenyl]-4-sulfonamide] | 42.7 ± 3.9 | 13 | – | – |
| O=c1c2c(O)cccc2oc2cc(NS(=O)(=O)c3ccc(C4CCCCC4)cc3)cc(O)c12 [Compound 9l, 4-Cyclohexyl-N-(1,8-dihydroxy-9-oxo-9H-xanthen-3-yl)benzenesulfonamide] | 18.5 ± 2.3 | 15 | – | – |
